Measurements taken from US20240132484A1, “BROAD SPECTRUM ANTIVIRAL COMPOUNDS TARGETING THE SKI COMPLEX” (priority 2020, published 2024).
“And” between values parts separate entries of the source, which are not always exact repeats. Equal entries are not always repeated. Where two headings read alike, the source gives them in different places.

Experiments:
SARS2 = type: cell-based, SARS-CoV-2; details: for Percentage Infection Relative to Appropriate DMSO Control: avg background subtraction

## Cc1ccc(CN(CCN(C)C)Cc2cc(C#CCO)cs2)s1 [SILCS1]
Cells (nuclei count); 1 μM, toxicity data, 100=DMSO control
  Relative cell count to DMSO controls, Average 1 μM: 98.82
Cells (nuclei count); 5 μM, toxicity data, 100=DMSO control
  Relative cell count to DMSO controls, Average 5 μM: 99.54
Cells (nuclei count); 10 μM, toxicity data, 100=DMSO control
  Relative cell count to DMSO controls, Average 10 μM: 108.52
Cells (nuclei count); 25 μM, toxicity data, 100=DMSO control
  Relative cell count to DMSO controls, Average 25 μM: 116.28
Cells (nuclei count); 50 μM, toxicity data, 100=DMSO control
  Relative cell count to DMSO controls, Average 50 μM: 84.14
Cells (nuclei count); Average of Exp 1-3, n 9, 1 uM
  Toxicity Data, Average, Mean: 98.82%
Cells (nuclei count); Average of Exp 1-3, n 9, 5 uM
  Toxicity Data, Average, Mean: 99.54%
Cells (nuclei count); Average of Exp 1-3, n 9, 10 uM
  Toxicity Data, Average, Mean: 108.52%
Cells (nuclei count); Average of Exp 1-3, n 9, 25 uM
  Toxicity Data, Average, Mean: 116.28%
Cells (nuclei count); Average of Exp 1-3, n 9, 50 uM
  Toxicity Data, Average, Mean: 84.14%
Cells (nuclei count); Exp 1 (SMW454), 1 uM
  Toxicity Data, nuclei count relative to DMSO controls: 105.2% and 108.8% and 106.3%
Cells (nuclei count); Exp 1 (SMW454), 5 uM
  Toxicity Data, nuclei count relative to DMSO controls: 102.9% and 104.5% and 102.2%
Cells (nuclei count); Exp 1 (SMW454), 10 uM
  Toxicity Data, nuclei count relative to DMSO controls: 107.4% and 106.9% and 105.6%
Cells (nuclei count); Exp 1 (SMW454), 25 uM
  Toxicity Data, nuclei count relative to DMSO controls: 94.7% and 94.9% and 95.9%
Cells (nuclei count); Exp 1 (SMW454), 50 uM
  Toxicity Data, nuclei count relative to DMSO controls: 83.8% and 87.1% and 84.9%
Cells (nuclei count); Exp 2 (SMW466), 1 uM
  Toxicity Data, nuclei count relative to DMSO controls: 93.5% and 94.5% and 96.6%
Cells (nuclei count); Exp 2 (SMW466), 5 uM
  Toxicity Data, nuclei count relative to DMSO controls: 107.1% and 94.1% and 106.7%
Cells (nuclei count); Exp 2 (SMW466), 10 uM
  Toxicity Data, nuclei count relative to DMSO controls: 107.3% and 102.2% and 104.0%
Cells (nuclei count); Exp 2 (SMW466), 25 uM
  Toxicity Data, nuclei count relative to DMSO controls: 130.6% and 124.7% and 133.0%
Cells (nuclei count); Exp 2 (SMW466), 50 uM
  Toxicity Data, nuclei count relative to DMSO controls: 88.5% and 77.1% and 78.5%
Cells (nuclei count); Exp 3 (SMW480), 1 uM
  Toxicity Data, nuclei count relative to DMSO controls: 89.7% and 102.3% and 92.4%
Cells (nuclei count); Exp 3 (SMW480), 5 uM
  Toxicity Data, nuclei count relative to DMSO controls: 88.1% and 95.7% and 94.5%
Cells (nuclei count); Exp 3 (SMW480), 10 uM
  Toxicity Data, nuclei count relative to DMSO controls: 124.6% and 98.4% and 120.2%
Cells (nuclei count); Exp 3 (SMW480), 25 uM
  Toxicity Data, nuclei count relative to DMSO controls: 120.8% and 130.3% and 121.5%
Cells (nuclei count); Exp 3 (SMW480), 50 uM
  Toxicity Data, nuclei count relative to DMSO controls: 72.1% and 98.8% and 86.4%
Cells (nuclei count); average value over the 5 tested concentrations (1 to 50 uM)
  Relative cell count to DMSO controls, Average (for correlation analysis): 101.46
SARS2; 1 uM, Exp 1 (SMW454), single wells
  Percentage Infection Relative to Appropriate DMSO Control: 99.35% and 98.10% and 99.72%
SARS2; 5 uM, Exp 1 (SMW454), single wells
  Percentage Infection Relative to Appropriate DMSO Control: 112.30% and 117.54% and 117.35%
SARS2; 10 uM, Exp 1 (SMW454), single wells
  Percentage Infection Relative to Appropriate DMSO Control: 107.68% and 118.84% and 98.07%
SARS2; 25 uM, Exp 1 (SMW454), single wells
  Percentage Infection Relative to Appropriate DMSO Control: 103.38% and 104.01% and 105.61%
SARS2; 50 uM, Exp 1 (SMW454), single wells
  Percentage Infection Relative to Appropriate DMSO Control: 103.48% and 93.04% and 95.93%
SARS2; Average of Exp 1-3, n 9, 1 uM
  Infection Data, Average, Mean: 122.42%
SARS2; Average of Exp 1-3, n 9, 5 uM
  Infection Data, Average, Mean: 119.79%
SARS2; Average of Exp 1-3, n 9, 10 uM
  Infection Data, Average, Mean: 100.52%
SARS2; Average of Exp 1-3, n 9, 25 uM
  Infection Data, Average, Mean: 61.83%
SARS2; Average of Exp 1-3, n 9, 50 uM
  Infection Data, Average, Mean: 43.32%
SARS2; Exp 2 (SMW466), 1 uM
  Percentage Infection Relative to Appropriate DMSO Control: 148.68% and 144.39% and 143.85%
SARS2; Exp 2 (SMW466), 5 uM
  Percentage Infection Relative to Appropriate DMSO Control: 114.43% and 126.13% and 128.85%
SARS2; Exp 2 (SMW466), 10 uM
  Percentage Infection Relative to Appropriate DMSO Control: 102.74% and 102.52% and 110.68%
SARS2; Exp 2 (SMW466), 25 uM
  Percentage Infection Relative to Appropriate DMSO Control: 28.51% and 36.47% and 30.25%
SARS2; Exp 3 (SMW480), 1 uM
  Percentage Infection Relative to Appropriate DMSO Control: 128.15% and 110.09% and 129.44%
SARS2; Exp 3 (SMW480), 5 uM
  Percentage Infection Relative to Appropriate DMSO Control: 127.64% and 114.03% and 119.89%
SARS2; Exp 3 (SMW480), 10 uM
  Percentage Infection Relative to Appropriate DMSO Control: 73.36% and 110.69% and 80.10%
SARS2; Exp 3 (SMW480), 25 uM
  Percentage Infection Relative to Appropriate DMSO Control: 55.94% and 38.83% and 53.44%
SARS2; Exp 3 (SMW480), 50 uM
  Percentage Infection Relative to Appropriate DMSO Control: 27.26% and 20.30% and 23.61%
SARS2; SARS2, 1 μM
  Percentage Inhibition Average 1 μM: −22.42%
SARS2; SARS2, 1 μM, 100=DMSO control
  Screening data (Relative infection to DMSO controls) Average 1 μM: 122.42
SARS2; SARS2, 5 μM
  Percentage Inhibition Average 5 μM: −19.79%
SARS2; SARS2, 5 μM, 100=DMSO control
  Screening data (Relative infection to DMSO controls) Average 5 μM: 119.79
SARS2; SARS2, 10 μM
  Percentage Inhibition Average 10 μM: −0.52%
SARS2; SARS2, 10 μM, 100=DMSO control
  Screening data (Relative infection to DMSO controls) Average 10 μM: 100.52
SARS2; SARS2, 25 μM
  Percentage Inhibition Average 25 μM: 38.17%
SARS2; SARS2, 25 μM, 100=DMSO control
  Screening data (Relative infection to DMSO controls) Average 25 μM: 61.83
SARS2; SARS2, 50 μM
  Percentage Inhibition Average 50 μM: 56.68%
SARS2; SARS2, 50 μM, 100=DMSO control
  Screening data (Relative infection to DMSO controls) Average 50 μM: 43.32
SARS2; SARS2, average over 1 to 50 uM, 100=DMSO control
  Average (relative infection to DMSO over the 5 tested concentrations): 89.58
